In a melting point compilation (Tetko et al.; mined from patent text by program, amines drawn as free bases though some values may be those of a salt):

SMILES | melting point [°C]
O=C(c1cccs1)c1cnn2c(-c3cccc(-c4nnn(Cc5cccnc5)n4)c3)ccnc12 | 95
CC1(C)CCc2c(N3CCSCC3)nc3sc4c(NCCCN5CCCC5=O)ncnc4c3c2C1 | 219 to 221
COC(=O)C1C(N2C(=O)c3ccccc3C2=O)C(=O)N1Cc1ccc(OC)cc1 (stereo not drawn) | 141 to 142
CCCNC(=O)C(C)Cc1ccc2c(c1)c(Cc1ccc(C(=O)NS(=O)(=O)c3ccccc3C)cc1OC)cn2C (stereo not drawn) | 103 to 117
O=C1Cc2ccccc2N1C1=NCCS1 | 97 to 99
CCCC=Cc1c(C(C)C)nc(C(C)C)c(CO)c1-c1cccc(OC)c1 | 71 to 75
CN(CCN1C(=O)c2ccccc2C(C)(C)C1=O)CCN1C(=O)c2ccccc2C(C)(C)C1=O | 106 to 107
Clc1ccc(-c2coc3ccc(Br)cc23)c(Cl)c1 | 116 to 117
CN1C(c2ccc3ccccc3c2)CC(=O)CC1c1ccc2ccccc2c1 (stereo not drawn) | 209 to 212
CC(C)(C)NC(=O)c1ccc(N2CCN(c3ccncc3)CC2)cc1 | 214 to 217
CCc1nc(-c2cccc(C)c2)c(-c2ccnc(CC#N)c2)s1 | 68 to 69
CCOC(=O)c1ccc(C#CC(O)c2cc(C(C)(C)C)cc(C(C)(C)C)c2OC)cc1 (stereo not drawn) | 101 to 103
COc1ccc2cc(-c3ccc(Cl)c(-n4nc(C)nc4C)c3)c(=O)oc2c1 | 210
Cc1cccc(-c2c[nH]nc2-c2ccnc(-c3ccc(OCCN4CCCC4)cc3)c2)n1 | 96
COCC1CN(c2c(F)cc3c(=O)c(C(=O)O)cn([C@@H]4C[C@@H]4F)c3c2OC)CCN1 (stereo partly drawn) | 92 to 95
COc1ccc(-c2cc3ncnc(Nc4ccc5[nH]ccc5c4)c3s2)cc1 | 150 to 180
COC(=O)COc1ccc2ccc(O)c(C(C)=O)c2c1 | 113 to 114
CC12C=CC(=O)C=C1C(Br)CC1C2CCC2(C)C(=O)CCC12 (stereo not drawn) | 188 to 190
COc1ncnc(OC)c1NC(N)=S | 210

SMILES | melting point [°C]
O=C(c1ccccc1CBr)c1cc(Cl)ccc1CBr | 152 to 153
CC(Br)=C(c1ccccc1)c1ccccc1 | 46 to 47
CCC(NC(=NC#N)Nc1cccnc1)c1cccc(Cl)c1 (stereo not drawn) | 153 to 155
CNC(=O)c1cccc(-c2cccc3cc(Cc4cccc(C(F)(F)F)c4)sc23)c1 | 104 to 106
CCCC1=NN(c2ccc(C(=O)O)cc2)C(=O)C1=CNc1ccccc1CC | 254
Cc1cc(CO)c2c(N)c(C(N)=O)sc2n1 | > 210
O=C(NC(NCCc1ccccc1)C(Cl)(Cl)Cl)c1ccncc1 (stereo not drawn) | 115 to 117
CN1C(=O)C([S-])=C(SC(N)=[NH2+])C1=O | 150 to 152
Cc1cnc2c(c1)COP(=S)(OC(C)C)O2 (stereo not drawn) | 96 to 98
COc1ccc(C(=CC(=O)N2CCOCC2)c2ccc(Cl)nc2)cc1OC | 154 to 160
O=c1ccoc(C=Cc2ccc(O)cc2)c1 | 198 to 201
CC(C)Oc1ccc(C(=O)N2CCNC2=Nc2c(Cl)cccc2Cl)cc1 | 146 to 148
COc1cc(OC(C)=O)c(OC)c(CCCCCc2c(OC)c(OC(C)=O)cc(OC)c2OC(C)=O)c1OC(C)=O | 94.5 to 95
N#Cc1ccc(OCCCOc2cccc(-c3cc4cc(C#N)ccc4o3)c2)cc1 | 157 to 158
CC(=O)N(C)N(C)c1ccc(CCn2cnc3cc(-c4ccc(Cl)cc4)sc3c2=O)cc1 | 227 to 228
CCOP(=O)(Cc1nnc2c(=O)[nH]c3ccc(Cl)cc3n12)OCC | 223 to 227
CC#CCOc1ccc(S(=O)(=O)N(C)C(CCCSc2ccc(Cl)cc2)C(=O)NO)cc1 (stereo not drawn) | 144 to 146
O=c1c2ccccc2c(-c2ccccc2)c2n1CCCC2O (stereo not drawn) | 220 to 222
COc1ccc(Cc2nc3c(O)cccc3o2)cc1OC1CCCC1 | 172 to 181
